What is called IC50 is the midpoint of a concentration-inhibition curve. A higher IC50 goes with lower potency.

In patent US11420958B2, “Aryl and heteroaryl substituted indole compounds” (BRISTOL-MYERS SQUIBB COMPANY, priority 2017, dated 2022) one finds IC50 data, which are given here for 24 compounds.

Assay type in all cases: cell-based
For one assay, the target named is human TLR8 (Homo sapiens (Human), UniProt Q9NR97). The assay can be described thus: TLR8 inhibition reporter assay (HEK-Blue, SEAP). The conditions noted are these: HEK-Blue cells overexpressing human TLR8, R848 15.9 μM stimulation. In outline: (§1)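 Reporter cells, NF-κB/AP-1-driven SEAP; cmpd 0.05 nM–50 μM final, 30 min RT pre-treat; stim gardiquimod 7.5 μM (TLR7), R848 15.9 μM (TLR8), ODN2006 5 nM (TLR9); 22 h 37 °C; % inhibition of SEAP signal.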
Chain of human TLR8 (Q9NR97 27-1041): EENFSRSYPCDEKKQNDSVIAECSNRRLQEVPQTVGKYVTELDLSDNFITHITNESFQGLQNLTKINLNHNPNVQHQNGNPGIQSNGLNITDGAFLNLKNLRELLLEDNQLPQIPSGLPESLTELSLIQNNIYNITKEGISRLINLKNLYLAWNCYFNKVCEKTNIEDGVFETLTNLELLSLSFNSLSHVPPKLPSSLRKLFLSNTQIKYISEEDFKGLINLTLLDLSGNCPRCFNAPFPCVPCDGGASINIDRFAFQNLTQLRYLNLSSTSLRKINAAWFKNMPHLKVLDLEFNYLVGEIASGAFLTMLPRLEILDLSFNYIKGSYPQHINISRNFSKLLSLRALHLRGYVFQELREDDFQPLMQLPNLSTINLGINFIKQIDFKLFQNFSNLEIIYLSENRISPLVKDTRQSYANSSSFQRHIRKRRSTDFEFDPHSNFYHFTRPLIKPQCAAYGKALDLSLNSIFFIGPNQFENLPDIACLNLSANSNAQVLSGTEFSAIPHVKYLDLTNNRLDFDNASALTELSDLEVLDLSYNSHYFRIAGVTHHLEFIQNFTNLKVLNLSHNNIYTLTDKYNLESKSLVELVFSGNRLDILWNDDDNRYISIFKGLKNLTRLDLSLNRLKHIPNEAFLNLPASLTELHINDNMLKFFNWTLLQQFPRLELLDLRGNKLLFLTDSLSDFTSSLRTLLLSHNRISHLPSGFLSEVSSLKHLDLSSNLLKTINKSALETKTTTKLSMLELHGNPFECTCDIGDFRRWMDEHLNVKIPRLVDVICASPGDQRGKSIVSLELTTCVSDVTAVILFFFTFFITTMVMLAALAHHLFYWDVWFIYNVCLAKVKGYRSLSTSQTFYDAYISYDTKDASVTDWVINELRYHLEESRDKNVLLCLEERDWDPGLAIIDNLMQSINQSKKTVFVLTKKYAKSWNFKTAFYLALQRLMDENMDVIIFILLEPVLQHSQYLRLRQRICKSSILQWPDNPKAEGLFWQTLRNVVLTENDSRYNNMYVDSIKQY
For orientation: In a reporter assay the amount or activity of a reporter protein is the signal.

The target of a further assay is human TLR7 (Homo sapiens (Human), UniProt Q9NYK1). As to the kind of experiment: TLR7 inhibition reporter assay (HEK-Blue, SEAP). To be noted: HEK-Blue cells overexpressing human TLR7, gardiquimod 7.5 μM stimulation. A digest of the protocol:
as §1

A further assay concerns the target human TLR9 (Homo sapiens (Human), UniProt Q9NR96). As to the kind of experiment: TLR9 inhibition reporter assay (HEK-Blue, SEAP). The conditions noted are these: HEK-Blue cells overexpressing human TLR9, ODN2006 5 nM stimulation. A digest of the protocol:
as §1

Chain of human TLR7 (Q9NYK1 27-1049): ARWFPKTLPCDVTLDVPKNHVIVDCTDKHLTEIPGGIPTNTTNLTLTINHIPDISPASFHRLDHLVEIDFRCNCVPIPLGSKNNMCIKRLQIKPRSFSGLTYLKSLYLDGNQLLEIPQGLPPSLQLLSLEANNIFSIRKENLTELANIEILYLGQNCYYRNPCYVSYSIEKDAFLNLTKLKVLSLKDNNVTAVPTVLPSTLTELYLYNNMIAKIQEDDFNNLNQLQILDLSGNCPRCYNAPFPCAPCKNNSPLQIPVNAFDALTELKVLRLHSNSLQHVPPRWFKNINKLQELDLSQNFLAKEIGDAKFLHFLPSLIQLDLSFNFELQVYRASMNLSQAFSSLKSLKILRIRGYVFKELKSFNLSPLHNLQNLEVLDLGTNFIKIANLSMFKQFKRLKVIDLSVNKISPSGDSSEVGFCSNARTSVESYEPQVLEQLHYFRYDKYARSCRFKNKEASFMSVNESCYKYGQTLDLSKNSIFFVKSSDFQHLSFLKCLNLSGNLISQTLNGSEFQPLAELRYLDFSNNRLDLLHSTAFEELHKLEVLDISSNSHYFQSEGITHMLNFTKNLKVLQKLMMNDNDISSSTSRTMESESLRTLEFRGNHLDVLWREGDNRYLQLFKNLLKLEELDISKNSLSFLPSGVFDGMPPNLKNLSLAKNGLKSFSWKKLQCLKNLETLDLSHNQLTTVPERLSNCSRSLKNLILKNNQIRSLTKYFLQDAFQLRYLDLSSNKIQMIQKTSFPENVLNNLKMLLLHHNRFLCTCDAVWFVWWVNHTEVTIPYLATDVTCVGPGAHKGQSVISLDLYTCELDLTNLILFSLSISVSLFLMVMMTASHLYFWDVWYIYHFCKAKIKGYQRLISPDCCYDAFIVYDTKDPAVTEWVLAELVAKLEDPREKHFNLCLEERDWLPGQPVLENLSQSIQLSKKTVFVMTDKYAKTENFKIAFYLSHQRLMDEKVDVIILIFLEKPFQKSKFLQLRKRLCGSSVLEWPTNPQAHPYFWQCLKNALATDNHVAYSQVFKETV
Chain of human TLR9 (Q9NR96 26-1032): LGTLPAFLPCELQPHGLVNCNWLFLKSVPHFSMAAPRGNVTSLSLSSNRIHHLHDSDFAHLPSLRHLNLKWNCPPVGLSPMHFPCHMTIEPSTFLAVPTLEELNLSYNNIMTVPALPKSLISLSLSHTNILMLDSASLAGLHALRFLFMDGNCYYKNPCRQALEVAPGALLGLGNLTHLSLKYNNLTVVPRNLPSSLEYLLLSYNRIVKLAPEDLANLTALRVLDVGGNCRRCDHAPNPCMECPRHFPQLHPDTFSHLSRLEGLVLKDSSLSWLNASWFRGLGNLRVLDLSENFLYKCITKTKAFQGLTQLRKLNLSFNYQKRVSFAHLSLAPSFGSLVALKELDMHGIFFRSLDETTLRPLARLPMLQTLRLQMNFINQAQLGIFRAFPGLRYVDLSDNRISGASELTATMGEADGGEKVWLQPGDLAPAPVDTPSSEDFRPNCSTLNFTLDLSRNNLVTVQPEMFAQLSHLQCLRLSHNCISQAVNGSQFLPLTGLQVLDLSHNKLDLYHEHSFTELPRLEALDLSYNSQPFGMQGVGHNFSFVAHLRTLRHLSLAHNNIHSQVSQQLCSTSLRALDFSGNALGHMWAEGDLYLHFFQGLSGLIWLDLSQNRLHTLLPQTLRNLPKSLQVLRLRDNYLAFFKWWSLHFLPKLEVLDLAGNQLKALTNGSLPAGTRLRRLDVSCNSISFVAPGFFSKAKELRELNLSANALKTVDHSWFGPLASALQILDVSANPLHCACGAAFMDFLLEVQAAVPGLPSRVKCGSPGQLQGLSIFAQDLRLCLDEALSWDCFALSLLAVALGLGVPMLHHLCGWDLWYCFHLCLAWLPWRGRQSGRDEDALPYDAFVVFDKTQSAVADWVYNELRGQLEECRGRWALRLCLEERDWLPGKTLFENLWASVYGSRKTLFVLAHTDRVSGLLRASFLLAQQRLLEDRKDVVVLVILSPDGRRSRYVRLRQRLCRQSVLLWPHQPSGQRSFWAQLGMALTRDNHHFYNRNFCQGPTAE

`COc1ccc(-c2[nH]c3ccc(-c4ccc(N5CCNCC5)nc4)cc3c2C(C)C)cc1OC` [Example 417, 2-(3,4-dimethoxyphenyl)-3-isopropyl-5-(6-(piperazin-1-yl)pyridin-3-yl)-1H-indole]: the IC50 against human TLR8 came out at 6.8 nM; on human TLR7, 49 nM; against human TLR9, 1220 nM.
In the case of `COc1ccc(-c2[nH]c3ccc(-c4ccc(OC5CCNCC5)cc4)cc3c2C(C)C)cc1OC` [Example 410, 2-(3,4-dimethoxyphenyl)-3-isopropyl-5-(4-(piperidin-4-yloxy)phenyl)-1H-indole], the IC50 was found to be 55 nM at human TLR8, 274 nM against human TLR7 and 4910 nM against human TLR9.
With `Cc1cc(-c2[nH]c3ccc(-c4nnc([C@@H]5Cc6ccccc6CN5)o4)cc3c2C(C)C)ccn1` [Example 81, (S)-2-(3-isopropyl-2-(2-methylpyridin-4-yl)-1H-indol-5-yl)-5-(1,2,3,4-tetrahydroisoquinolin-3-yl)-1,3,4-oxadiazole], the values for the IC50 at human TLR8, against human TLR7 and against human TLR9 were 73 nM, 774 nM and more than 50000 nM, respectively.
With `CNCCN1CCn2nc(-c3ccc4[nH]c(-c5ccnc(C)c5)c(C(C)C)c4c3)c(C(N)=O)c2C1` [Example 218, 2-(3-isopropyl-2-(2-methylpyridin-4-yl)-1H-indol-5-yl)-5-(2-(methylamino)ethyl)-4,5,6,7-tetrahydropyrazolo[1,5-a]pyrazine-3-carboxamide], the figures for the IC50 against human TLR8, on human TLR7 and against human TLR9 were 93 nM, 496 nM and 1940 nM, respectively.
In the same order, the values of `CCc1c(-c2ccnc(C)c2)[nH]c2ccc(-c3noc(C4CCCNC4)n3)cc12` (stereo not drawn) [Example 457, 3-(3-ethyl-2-(2-methylpyridin-4-yl)-1H-indol-5-yl)-5-(piperidin-3-yl)-1,2,4-oxadiazole] are 11 nM, 228 nM and 686 nM.
In the same order, the values of `Cc1cc(-c2[nH]c3ccc(-c4nnc(C(=O)NC5CCN(C(C)C)CC5)o4)cc3c2C(C)C)cc(C)n1` [Example 221, 5-(2-(2,6-dimethylpyridin-4-yl)-3-isopropyl-1H-indol-5-yl)-N-(1-isopropylpiperidin-4-yl)-1,3,4-oxadiazole-2-carboxamide] are 2.5 nM, 15 nM and 515 nM.
For `Cc1cc(-c2[nH]c3ccc(-c4nnc([C@@H]5CCCNC5)o4)cc3c2C(C)C)cc(C)n1` [Example 232, (R)-2-(2-(2,6-dimethylpyridin-4-yl)-3-isopropyl-1H-indol-5-yl)-5-(piperidin-3-yl)-1,3,4-oxadiazole], the results for the IC50 against human TLR8, against human TLR7 and at human TLR9 were 3.2 nM, 11 nM and 950 nM, respectively.
The corresponding values for `COc1ccc(-c2[nH]c3ccc(-c4nnc(CNCCOCCO)o4)cc3c2C(C)C)cc1OC` [Example 112, 2-(2-(((5-(2-(3,4-dimethoxyphenyl)-3-isopropyl-1H-indol-5-yl)-1,3,4-oxadiazol-2-yl)methyl)amino)ethoxy)ethan-1-ol] are 82 nM, 38 nM and more than 50000 nM.
Turning to `Cc1cc(-c2[nH]c3ccc(-c4nc(C(=O)NCCCN5CCCCC5)co4)cc3c2C(C)C)cc(C)n1` [Example 275, 2-(2-(2,6-dimethylpyridin-4-yl)-3-isopropyl-1H-indol-5-yl)-N-(3-(piperidin-1-yl)propyl)oxazole-4-carboxamide], the results for the IC50 at human TLR8, against human TLR7 and on human TLR9 were 12 nM, 18 nM and 601 nM, respectively.
In the same order, the values of `COc1ccc(-c2[nH]c3ccc(-c4cccc(C(=O)N5CCCN(C)CC5)c4)cc3c2C(C)C)cc1OC` [Example 5, (3-(2-(3,4-dimethoxyphenyl)-3-isopropyl-1H-indol-5-yl)phenyl)(4-methyl-1,4-diazepan-1-yl)methanone] are 6.8 nM, 121 nM and 3290 nM.
In the case of `COc1ccc(-c2[nH]c3ccc(-c4nnc(C5CCN(Cc6ccccc6)CC5)[nH]4)cc3c2C(C)C)cc1OC` [Example 106, 5-(5-(1-benzylpiperidin-4-yl)-4H-1,2,4-triazol-3-yl)-2-(3,4-dimethoxyphenyl)-3-isopropyl-1H-indole], the results for the IC50 against human TLR8, against human TLR7 and against human TLR9 were 45 nM, 138 nM and 1710 nM, respectively.
With `Cc1cc(-c2[nH]c3ccc(-c4cn5cc(C)nc5cc4C)cc3c2C(C)C)cc(C)n1` [Example 347, 6-(2-(2,6-dimethylpyridin-4-yl)-3-isopropyl-1H-indol-5-yl)-2,7-dimethylimidazo[1,2-a]pyridine], the IC50 against human TLR8 amounted to 6.9 nM; on human TLR7, 6.6 nM; at human TLR9, 592 nM.
The corresponding values for `Cc1cc(-c2[nH]c3ccc(-c4nnc(Cn5ccnc5)o4)cc3c2C(C)C)ccn1` [Example 141, 2-((1H-imidazol-1-yl)methyl)-5-(3-isopropyl-2-(2-methylpyridin-4-yl)-1H-indol-5-yl)-1,3,4-oxadiazole] are 27 nM, 192 nM and more than 50000 nM.
The corresponding values for `Cc1cc(-c2[nH]c3ccc(-c4nc(C(=O)NCC(C)(C)N5CCOCC5)co4)cc3c2C(C)C)cc(C)n1` [Example 289, 2-(2-(2,6-dimethylpyridin-4-yl)-3-isopropyl-1H-indol-5-yl)-N-(2-methyl-2-morpholinopropyl)oxazole-4-carboxamide] are 10 nM, 100 nM and 2090 nM.
On to `CCc1c(-c2ccnc(C)c2)[nH]c2ccc(-c3noc(C4CNC4)n3)cc12` [Example 458, 5-(azetidin-3-yl)-3-(3-ethyl-2-(2-methylpyridin-4-yl)-1H-indol-5-yl)-1,2,4-oxadiazole], for which the IC50 turned out to be 37 nM at human TLR8, 163 nM against human TLR7 and 1050 nM against human TLR9.
For the compound `COc1ccc(-c2[nH]c3ccc(-c4cccc(C(=O)N(C)CCc5ccccn5)c4)cc3c2CC(F)(F)F)cc1OC` [Example 35, 3-(2-(3,4-dimethoxyphenyl)-3-(2,2,2-trifluoroethyl)-1H-indol-5-yl)-N-methyl-N-(2-(pyridin-2-yl)ethyl)benzamide], the IC50 at human TLR8 was 71 nM; at human TLR7, 974 nM; on human TLR9, more than 50000 nM.
In the same order, the values of `Cc1cc(-c2[nH]c3ccc(-c4nnc(C5CCCNC5)[nH]4)cc3c2C(C)C)ccn1` (stereo not drawn) [Example 164, 3-isopropyl-2-(2-methylpyridin-4-yl)-5-(5-(piperidin-3-yl)-4H-1,2,4-triazol-3-yl)-1H-indole] are 27 nM, 45 nM and 10400 nM.
In the same order, the values of `COc1ccc(-c2[nH]c3ccc(-c4nnc(CC(F)(F)F)o4)cc3c2C(C)C)cc1OC` [Example 64, 2-(2-(3,4-dimethoxyphenyl)-3-isopropyl-1H-indol-5-yl)-5-(2,2,2-trifluoroethyl)-1,3,4-oxadiazole] are 340 nM, 1040 nM and more than 50000 nM.
The corresponding values for `COc1ccc(-c2[nH]c3ccc(-c4cnc(N5CCN(CCC(C)O)CC5)nc4)cc3c2C(C)C)cc1OC` (stereo not drawn) [Example 431, 4-(4-(5-(2-(3,4-dimethoxyphenyl)-3-isopropyl-1H-indol-5-yl)pyrimidin-2-yl)piperazin-1-yl)butan-2-ol] are 31 nM, 145 nM and 3300 nM.
With `COc1ccc(-c2[nH]c3ccc(-c4nnc(C(=O)N(C)CCc5ccccn5)o4)cc3c2C(C)C)cc1OC` [Example 94, 5-(2-(3,4-dimethoxyphenyl)-3-isopropyl-1H-indol-5-yl)-N-methyl-N-(2-(pyridin-2-yl)ethyl)-1,3,4-oxadiazole-2-carboxamide], the IC50 against human TLR8 is 222 nM; against human TLR7, 181 nM; against human TLR9 it was 13100 nM.
As to `Cc1cc(-c2[nH]c3ccc(-c4sc(C5CCNCC5)nc4C)cc3c2C(C)C)ccn1` [Example 201, 5-(3-isopropyl-2-(2-methylpyridin-4-yl)-1H-indol-5-yl)-4-methyl-2-(piperidin-4-yl)thiazole], the IC50 at human TLR8 was found to be 2.9 nM; at human TLR7, 10 nM; against human TLR9, 1840 nM.
Take `CC(=O)N1CCN(Cc2nnc(-c3ccc4[nH]c(-c5ccnc6[nH]ncc56)c(C(C)C)c4c3)o2)CC1` [Example 153, 1-(4-((5-(3-isopropyl-2-(1H-pyrazolo[3,4-b]pyridin-4-yl)-1H-indol-5-yl)-1,3,4-oxadiazol-2-yl)methyl)piperazin-1-yl)ethan-1-one]: the results for the IC50 against human TLR8, at human TLR7 and against human TLR9 were 138 nM, 1570 nM and more than 50000 nM, respectively.
In the same order, the values of `COc1ccc(-c2[nH]c3ccc(-c4ccc(OC5CCN(C(C)C)CC5)cc4)cc3c2C(C)C)cc1OC` [Example 389, 2-(3,4-dimethoxyphenyl)-3-isopropyl-5-(4-((1-isopropylpiperidin-4-yl)oxy)phenyl)-1H-indole] are 126 nM, 338 nM and 2360 nM.
For the compound `CC(C)c1c(-c2ccnc3[nH]ncc23)[nH]c2ccc(-c3nnc(CN4CCC[C@H]4C(N)=O)o3)cc12` [Example 158, (S)-1-((5-(3-isopropyl-2-(1H-pyrazolo[3,4-b]pyridin-4-yl)-1H-indol-5-yl)-1,3,4-oxadiazol-2-yl)methyl)pyrrolidine-2-carboxamide], the results for the IC50 on human TLR8, at human TLR7 and against human TLR9 were 174 nM, 1380 nM and more than 50000 nM, respectively.
